In US6479504B1, “Antagonism of immunostimulatory CpG-oligonucleotides by 4-aminoquinolines and other weak bases” (The University of Iowa Research Foundation, priority 1999, dated 2002):
Read-outs that look alike come from different tables or passages of the source.

Assays:
[1] = test system: CpG-ODN effect on thymidine uptake by WEHI 231 B-cells; test: Inhibition of CpG-ODN effect on thymidine uptake by WEHI 231 B-cells treated with anti-surface IgM; type: cell-based, murine
Excerpt: The ability of analogs to inhibit an immunostimulatory effect of CpG-ODN was examined. This assay measures the reversal of the protection by CpG-ODN against surface IgM induced killing of WEHI 231 cells.

WEHI 231 cells [2] = test: Uptake of Texas Red-labeled CpG-ODN 1760 by flow cytometry; type: cell-based, murine; details: 5 ug/ml Texas Red CpG-ODN 1760
Method: FIG. 6. […] The cells were then washed three times, and fixed. The cellular uptake of fluorescent CpG-ODN was estimated by flow cytometry. […] .
After incubation with the additions indicated, the cells were centrifuged and resuspended three times into Hanks buffered salt solution at 37° to remove surface bound ODN, and then resuspended and fixed in 2% paraformaldehyde for analysis in the University of-Iowa Flow Cytometry Facility. 10,000 events were recorded using a Coulter EPICS 753 at 488/600 nm, gating out dead cells. The mean cellular fluorescence was recorded.
The effect of chloroquine and non-fluorescent analogs on the uptake of Texas Red-labeled CpG-ODN 1760 was investigated. […] . Flow cytometry measures cell-associated fluorescence because signals derived from dead cells (which take up ODN avidly, (Tonkinson and Stein, 1994)) are easily gated out of the analysis.

CpG ODN 1760 = test: DNA thermal melting at 260 nm; type: binding; details: 0.3 moles of compound per base, MES with 150 mM KCl, pH 4.4
Method: Thermal melting studies were conducted at 260 nm with a Cary spectrophotometer interfaced to a microcomputer. A thermistor fixed into a reference cuvette was used to monitor the temperature. The DNA oligomer was added to 1 mL of buffer (MES with 150 mM KCl, pH 4.4) in 1 cm path length reduced-volume quartz cells. Studies were generally conducted a at concentration of 5×10-^5M bases. […].
Structural nucleic acids with duplex or single-stranded folded conformations generally give sigmoid thermal melting curves characteristic of thermal unfolding of the structures. This unfolding results in a change in the UV spectrum. […]

WEHI 231 cells [3] = details: 1 μM
WEHI 231 cells [4] = test: Confocal microscopy of subcellular distribution of internalized CpG-ODN
quadruplex DNA = test: Quadruplex DNA stabilization; type: binding
Excerpt: Since nucleic acids are involved and several compounds of this study have been shown previously to strongly stabilize a triple-helix DNA structure, it was hypothesized initially that stabilization of the triple helix complex is part of the mechanism. […] In addition, compound 1 binds weakly to RNA (Wilson et al., 1993).

duplex DNA = details: cited from earlier work
RNA = details: cited from earlier work
[5] = experimental, ring nitrogen of the quinoline; taken from Strekowski et al., J Med. Chem. 1996; cited from earlier work
triple-helix DNA = details: cited from earlier work
WEHI 231 cells [6] = test: Monensin effect on cellular concentration of quinacrine; type: cell-based, murine; details: Mus musculus, WEHI231, 0.5 h; 1 uM quinacrine, 30 min; read-out: Monensin concentration for half maximal inhibition of quinacrine uptake and loss of quinacrine from preloaded cells
Method: FIG. 5. Monensin: Cells were incubated with 1 uM quinacrine 17 or compound 227 for 30 min. Monensin at the indicated concentration was added either at the same time as the analog or at the end of the 30 min incubation, and the cellular concentration of the analog was determined by fluorescence.
Both effects were half maximal at a monensin concentration of about 1 μM (FIG. 5). Similar results were obtained with other analogs.

WEHI 231 cells [7] = details: mouse
Method: Cellular uptake of analogs was estimated by fluorescence. […] The cells were pelleted by centrifugation, and the fluorescence of the supernatant was measured after dilution with the appropriate buffer. The cell pellet was extracted with 1 ml Catrimox-14 (Iowa Biotechnology Corp., Coralville, La.), and the insoluble nucleic acids were removed by centrifugation (16,000×g, 10 min). The resulting extract was diluted with the appropriate buffer, and its fluorescence was measured. […] The fluorescence intensity and spectra were determined with a Farrand Manual Spectrofluorometer at three pH's (3.4, 7.4, 10.0). Subsequent measurements of fluorescence were performed at pH giving the highest yield (Table I).
Standard curves of the fluorescence intensity of each analog in cell culture medium and in the cell extract buffer were prepared, measurements being taken at the pH listed in the table. To examine the uptake of the analogs by cells, WEHI 231 cells were incubated with a range of concentrations of the analogs, and measured the concentration of the analog remaining in the supernatant and the amount of analog in the extract of a cell pellet using the standard curves.
The sources were a=Sigma Chemical Co., b=National Cancer Institute, c=Synthesized by LS, d=Synthesized by FMI. […] ND, not determined.

[8] = concentration required for 50% blockage of the ability of CpG-ODN to rescue WEHI 231 cells from anti-surface IgM-induced cell death, read-out: 50% Efficacy
[9] = concentration for half-maximal inhibition of CpG-ODN effect on thymidine uptake by WEHI 231 B-cells in presence of anti-sIgM, estimated experimental error ± 15%, read-out: EC50
[10] = Mus musculus, WEHI231, concentration for half-maximal inhibition of CpG-ODN effect on thymidine uptake by WEHI 231 B-cells in presence of anti-sIgM, estimated experimental error ± 15%, read-out: EC50
[11] = Mus musculus, WEHI231, concentration required for 50% blockage of the ability of CpG-ODN to rescue WEHI 231 cells from anti-surface IgM-induced cell death, read-out: 50% Efficacy

Compound: COc1ccc2nc3cc(Cl)ccc3c(NC3CCCCC3Nc3ccnc4cc(Cl)ccc34)c2c1 (racemic) [Ism 9]
- EC50 [1, 8]: 105 nM

Compound: COc1ccc2nc3cc(Cl)ccc3c(NC3CCCCC3Nc3c4ccc(Cl)cc4nc4ccc(OC)cc34)c2c1 (racemic) [Ism 16]
- EC50 [1, 8]: 14.5 nM

Compound: CCN(CC)CCCC(Nc1c2ccc(Cl)cc2nc2ccc(OC)cc12)c1ccncc1 (centres unmarked) [10591-T/2, reference compound]
- EC50 [1, 8]: 30.2 nM

Compound: CCN(CC)CCCC(C)Nc1ccnc2cc(Cl)ccc12 (centres unmarked) [Chloroquine, chloroquine]
- Influence on CpG-ODN uptake (WEHI 231 cells [2]): no significant influence
- Change in the thermal melting curve of the free CpG-ODN (CpG ODN 1760): did not cause any significant change
- Increase in the pH of CpG-ODN-containing compartment (WEHI 231 cells [3]): less than 0.01 pH units
- Influence on subcellular distribution of internalized CpG-ODN (WEHI 231 cells [4]): did not influence
- Suppression of CpG-ODN responses ([1]; 1 μM): completely suppresses

Compound: CN(C)CCNc1cc(-c2ccc3ccccc3c2)nc2ccccc12 [Compound 1]
- Stabilization of quadruplex DNA (quadruplex DNA): do not stabilize
- Binding to duplex DNA (duplex DNA): binds weakly
- Binding to RNA (RNA): binds weakly
- pKa [5]: 7.1
- Triplex DNA stabilization / binding (triple-helix DNA): one of the best triplex DNA stabilizing agents known to date
- EC50 [1, 9]: 9.1 nM

Compound: CN(C)CCNc1cc(-c2ccc3ccc4ccccc4c3c2)nc2ccccc12 [Compound 2]
- EC50 [1, 9]: 11 nM

Compound: CN(C)CCNc1cc(-c2cccc3ccccc23)nc2ccccc12 [Compound 3]
- Stabilization of quadruplex DNA (quadruplex DNA): do not stabilize
- Binding to duplex DNA (duplex DNA): does not bind at all
- Triplex DNA stabilization / binding (triple-helix DNA): does not promote triplex DNA formation and does not bind to the triple DNA structure
- EC50 [1, 9]: 39.8 nM

Compound: Cc1ccc(-c2cc(NCCN(C)C)c3ccccc3n2)cc1 [Compound 4]
- EC50 [1, 9]: 12.3 nM

Compound: CN(C)CCNc1cc(/C=C/c2ccccc2)nc2ccccc12 [Compound 5]
- EC50 [1, 9]: 6.5 nM

Compound: CN(C)CCNc1cc(-c2ccc(C(F)(F)F)cc2)nc2ccccc12 [Compound 6]
- EC50 [1, 9]: 155 nM

Compound: CN(C)CCN(C)c1cc(-c2ccc3ccccc3c2)nc2ccccc12 [Compound 7]
- pKa [5]: 6.2
- EC50 [1, 9]: 416 nM

Compound: CN(C)CCSc1cc(-c2ccc3ccccc3c2)nc2ccccc12 [Compound 9]
- pKa [5]: 4.4
- EC50 [1, 9]: 2400 nM

Compound: CN(C)CCNC(=O)c1cc(-c2ccc3ccccc3c2)nc2ccccc12 [Compound 10]
- pKa [5]: 2.9
- EC50 [1, 9]: > 10000 nM

Compound: CN(C)CCCNc1ccnc2ccccc12 [Compound 11]
- EC50 [1, 9]: 4400 nM

Compound: Cc1ccc(-c2cc(NCCCN(C)C)c3ccccc3n2)cc1 [Compound 12]
- EC50 [1, 9]: 11.5 nM

Compound: CN(C)CCCNc1cc(-c2ccc3ccccc3c2)nc2ccccc12 [Compound 13]
- EC50 [1, 9]: 11 nM

Compound: CN(C)CCCCNc1ccnc2ccccc12 [Compound 14]
- EC50 [1, 9]: 316 nM

Compound: CN(C)CCCCNc1cc(-c2ccc3ccccc3c2)nc2ccccc12 [Compound 15]
- EC50 [1, 9]: 4 nM

Compound: CN(C)CCCCCCNc1cc(-c2ccc3ccccc3c2)nc2ccccc12 [Compound 16]
- EC50 [1, 9]: 5.9 nM

Compound: CC(C)(C)OC(=O)NCCNc1cc(-c2ccc3ccccc3c2)nc2ccccc12 [Compound 20]
- EC50 [1, 9]: 570 nM

Compound: CC(CCCC(C)(C)O)Nc1cc(-c2ccc3ccccc3c2)nc2ccccc12 (centres unmarked) [Compound 21]
- EC50 [1, 9]: 1150 nM

Compound: CC(Nc1cc(-c2ccc3ccccc3c2)nc2ccccc12)C(O)c1ccccc1 (centres unmarked) [Compound 22]
- EC50 [1, 9]: 1000 nM

Compound: OCCOCCNc1cc(-c2ccc3ccccc3c2)nc2ccccc12 [Compound 23]
- EC50 [1, 9]: 330 nM

Compound: OCCCCCCNc1cc(-c2ccc3ccccc3c2)nc2ccccc12 [Compound 24]
- EC50 [1, 9]: 170 nM

Compound: O=C(CCCO)NCCCN1CCN(CCCNc2cc(-c3ccc4ccccc4c3)nc3ccccc23)CC1 [Compound 25]
- EC50 [1, 9]: 25.1 nM

Compound: CCCCc1ccc(Nc2cc(-c3ccc4ccccc4c3)nc3ccccc23)cc1 [Compound 26]
- EC50 [1, 9]: > 10000 nM

Compound: OCCc1ccc(Nc2cc(-c3ccc4ccccc4c3)nc3ccccc23)cc1 [Compound 27]
- EC50 [1, 9]: 510 nM

Compound: Oc1ccc(Nc2cc(-c3ccc4ccccc4c3)nc3ccccc23)cc1 [Compound 28]
- EC50 [1, 10]: 320 nM

Compound: Oc1c(CN2CCOCC2)cc(Nc2cc(-c3ccc4ccccc4c3)nc3ccccc23)cc1CN1CCOCC1 [Compound 29]
- EC50 [1, 10]: 10 nM

Compound: Oc1c(CN2CCCCC2)cc(Nc2cc(-c3ccc4ccccc4c3)nc3ccccc23)cc1CN1CCCCC1 [Compound 30]
- EC50 [1, 10]: 1.5 nM

Compound: Oc1c(CN2CCCC2)cc(Nc2cc(-c3ccc4ccccc4c3)nc3ccccc23)cc1CN1CCCC1 [Compound 31]
- EC50 [1, 10]: 1.2 nM

Compound: CN1CCN(Cc2cc(Nc3cc(-c4ccc5ccccc5c4)nc4ccccc34)cc(CN3CCN(C)CC3)c2O)CC1 [Compound 32]
- EC50 [1, 10]: 0.24 nM

Compound: CCN(CCO)CCCC(C)Nc1ccnc2cc(Cl)ccc12 (centres unmarked) [Hydroxychloroquine, reference compound]
- EC50 [1, 11]: 407 nM

Compound: CN(C)CCNc1cc(-c2ccc3ccccc3c2)nc2ccccc12 [LS-8]
- EC50 [1, 8]: 9.5 nM

Compound: CCCCN(CCCC)CCCNc1cc(-c2ccc3ccccc3c2)nc2ccccc12 [MHQ-6]
- EC50 [1, 8]: 16.3 nM

Compound: CC[C@@]1([C@@H]2O[C@@H]([C@H]3O[C@@](O)(CO)[C@H](C)C[C@@H]3C)C[C@@H]2C)CC[C@H]([C@]2(C)CC[C@]3(C[C@H](O)[C@@H](C)[C@@H]([C@@H](C)[C@@H](OC)[C@H](C)C(=O)O)O3)O2)O1 [Monensin]
- EC50 (WEHI 231 cells [6]): ~1000 nM

Compound: CN(C)CCCCCCNc1cc(-c2ccc3ccccc3c2)nc2ccccc12 [OZ-123]
- EC50 [1, 8]: 5.9 nM

Compound: CCN(CC)CCCC(C)Nc1c2ccc(Cl)cc2nc2ccc(OC)cc12 (centres unmarked) [Quinacrine]
- Cellular uptake ratio (WEHI 231 cells [7]): 601
- Change in the thermal melting curve of the free CpG-ODN (CpG ODN 1760): did not cause any significant change
- EC50 [1, 11]: 10.2 nM

Compound: C=C[C@H]1C[N@@]2CC[C@H]1C[C@H]2[C@H](O)c1ccnc2ccc(OC)cc12 [Quinine, reference compound]
- EC50 [1, 11]: 23000 nM
